The text below walks through data of PMC4876393, “Structure of the Dictyostelium Myosin-II Heavy Chain Kinase A (MHCK-A) α-kinase domain apoenzyme reveals a novel autoinhibited conformation” (Scientific Reports, 2016).

For orientation: Kd means the constant that tells how readily two partners part at equilibrium. A lower Kd goes with higher affinity. As usually defined, the Km is the substrate concentration at which the rate is half of its maximum. As usually defined, the kcat is the maximal rate divided by the concentration of active sites.

Non-standard residues stand in square brackets, D forms with d. Residues, ends and D or L forms follow the SMILES beside them. pT = C[C@@H](OP(=O)(O)O)[C@H](N)C(=O)O

One data set concerns the target T1, A-CAT-Δ809 (Dictyostelium discoideum, UniProt P42527).
T1 construct: A-CAT encompasses the α-kinase domain and Thr825 autophosphorylation site of MHCK-A; made in house; host or cells: E. coli (printed for A-CAT and A-CAT-D663A)
T1 sequence (P42527 552-809 limits assumed): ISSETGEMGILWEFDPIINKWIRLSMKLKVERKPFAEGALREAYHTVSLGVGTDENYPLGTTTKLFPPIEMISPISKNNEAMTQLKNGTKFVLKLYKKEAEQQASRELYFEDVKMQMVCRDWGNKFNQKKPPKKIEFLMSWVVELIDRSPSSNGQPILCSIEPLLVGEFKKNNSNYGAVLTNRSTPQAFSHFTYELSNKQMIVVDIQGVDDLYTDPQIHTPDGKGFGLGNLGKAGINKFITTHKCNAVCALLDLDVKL
Briefly: Activation of truncated A-CAT-Δ809 kinase activity by phosphopeptides (Pi-pocket binding). The format is biochemical. The conditions noted are these: 22 °C, pH 7.0, mean and standard deviation of at least 3 separate experiments; for Kd: hyperbolic fit of A-CAT-Δ809 kinase activity vs peptide, assayed as described in ref [29], 2 mM MgCl2, 1 mM dithiothreitol, 20 mM TES; for Vmax: kinase activity as a percentage of wild-type A-CAT activity, hyperbolic fit.

Another data set deals with eEF2K. On the set-up: method as in PMID 22115317. The settings on record: with and without Ca^2+-calmodulin; ref [40]; cited from earlier work.
In data set [1] the test system is T2, Nc1ncnc2c1ncn2[C@@H]1O[C@H](COP(=O)(O)OP(=O)(O)OP(=O)(O)O)[C@@H](O)[C@H]1O.
T2 construct: A-CAT: alpha-kinase domain and Thr825 autophosphorylation site of MHCK-A
Kind of data set: Radiometric kinase assay with [γ-32P]ATP and 20 μM myelin basic protein as phosphate acceptor (P81 paper) at 22 °C in 2 mM MgCl2, 1 mM dithiothreitol, 20 mM TES, pH 7.0. The format is biochemical. As for the experimental part: (§1) Assays were carried out at 22 °C in a buffer containing 2 mM MgCl2, 1 mM dithiothreitol and 20 mM TES, pH 7.0. Kinase assays contained 20 μM myelin basic protein (MBP), 0.5–2 μM A-CAT and 200 μM [γ-^32P]ATP (specific activity 100 cpm/pmol). At each time point, 20 μl aliquots of the reaction mixture were spotted onto squares of Whatman P81 phosphocellulose paper, which were then washed 1% phosphoric acid, immersed in ScintiVerse Universal LS Mixture (Fisher Scientific), and counted using a Beckman LS 9000 scintillation counter. Assays to measure A-CAT-Δ809 activity in the presence of the QQG(p)TMVMPD and QQG(p)TMSMPD peptides were carried out as described. ATPase activity was assayed using 250 μM ATP and release of inorganic phosphate (Pi) was measured using the Pi ColorLock Gold phosphate detection system (Innova Biosciences). Data from the initial linear portion of the time courses were used to calculate kinase and ATPase activity. Nucleotide binding assays using mant-ATP and mant-ADP were carried out as previously described. Results represent the mean and standard deviation of at least 3 separate experiments.

The test system is the same in data set [2]. Kind of data set: ATPase assay by inorganic phosphate release (Pi ColorLock Gold) at 22 °C in 2 mM MgCl2, 1 mM dithiothreitol, 20 mM TES, pH 7.0. The format is biochemical. As for the experimental part:
as §1

Another data set concerns the target A-CAT Y647F. Kind of data set: mant-nucleotide binding to A-CAT Y647F. The settings on record: 22 °C, 2 mM MgCl2, 1 mM dithiothreitol, 20 mM TES, pH 7.0, mean and standard deviation of at least 3 separate experiments. The arrangement: species or system Dictyostelium. As for the experimental part: as §1
The target of a further data set is A-CAT D663S. Briefly: mant-nucleotide binding to A-CAT D663S. The arrangement: species or system Dictyostelium. The conditions noted are these: for Kd: A-CAT D663S, 22 °C, 2 mM MgCl2, 1 mM dithiothreitol, 20 mM TES, pH 7.0, mean and standard deviation of at least 3 separate experiments; for effect of the D663S mutation on nucleotide binding: compared with wild-type A-CAT. As for the experimental part:
as §1

In a further data set the target is A-CAT D663A. Briefly: mant-nucleotide binding to A-CAT D663A. The arrangement: species or system Dictyostelium. The conditions noted are these: for Kd: A-CAT D663A, 22 °C, 2 mM MgCl2, 1 mM dithiothreitol, 20 mM TES, pH 7.0, mean and standard deviation of at least 3 separate experiments; for effect of the D663A mutation on nucleotide binding: compared with wild-type A-CAT. As for the experimental part:
as §1

The next data set addresses A-CAT Y647A. Briefly: mant-nucleotide binding to A-CAT Y647A. The arrangement: species or system Dictyostelium. The conditions noted are these: for Kd: A-CAT Y647A, 22 °C, 2 mM MgCl2, 1 mM dithiothreitol, 20 mM TES, pH 7.0, mean and standard deviation of at least 3 separate experiments; for effect of the Y647A mutation on nucleotide binding: compared with wild-type A-CAT. As for the experimental part: as §1

Procedure for A-CAT-Δ809: (c) The kinase activity of A-CAT-Δ809 was assayed in the presence of peptides with the sequences QQG(p)TMVMPD (closed circles) or a QQG(p)TMSMPD (open circles). […] Kinase activities are reported as a percentage of wild-type A-CAT activity.
To test whether a hydrophobic residue in the P + 2 position favors binding to the Pi-pocket, experiments were carried out using a truncated A-CAT (A-CAT-Δ809) that lacks the activating Thr825 site of autophosphorylation and two phosphopeptides: one with a valine and one with a serine at the P + 2 position (QQG(p)TMVMPD and QQG(p)TMSMPD) (Fig. 3c).
Assays were carried out at 22 °C in a buffer containing 2 mM MgCl2, 1 mM dithiothreitol and 20 mM TES, pH 7.0. Kinase assays contained 20 μM myelin basic protein (MBP), 0.5–2 μM A-CAT and 200 μM [γ-^32P]ATP (specific activity 100 cpm/pmol). At each time point, 20 μl aliquots of the reaction mixture were spotted onto squares of Whatman P81 phosphocellulose paper, which were then washed 1% phosphoric acid, immersed in ScintiVerse Universal LS Mixture (Fisher Scientific), and counted using a Beckman LS 9000 scintillation counter. Assays to measure A-CAT-Δ809 activity in the presence of the QQG(p)TMVMPD and QQG(p)TMSMPD peptides were carried out as described[29]. […] Data from the initial linear portion of the time courses were used to calculate kinase and ATPase activity.

Regarding `CSCC[C@H](NC(=O)[C@@H](NC(=O)CNC(=O)[C@H](CCC(N)=O)NC(=O)[C@@H](N)CCC(N)=O)[C@@H](C)OP(=O)(O)O)C(=O)N[C@H](C(=O)N[C@@H](CCSC)C(=O)N1CCC[C@H]1C(=O)N[C@@H](CC(=O)O)C(=O)O)C(C)C` [QQG(p)TMVMPD] (H-QQG[pT]MVMPD-OH), at A-CAT-Δ809, the dissociation constant (Kd) was found to be 38 ± 12 µM and the Vmax is recorded as 61 ± 4%.

With `CSCC[C@H](NC(=O)[C@@H](NC(=O)CNC(=O)[C@H](CCC(N)=O)NC(=O)[C@@H](N)CCC(N)=O)[C@@H](C)OP(=O)(O)O)C(=O)N[C@@H](CO)C(=O)N[C@@H](CCSC)C(=O)N1CCC[C@H]1C(=O)N[C@@H](CC(=O)O)C(=O)O` [QQG(p)TMSMPD] (H-QQG[pT]MSMPD-OH), at A-CAT-Δ809, the affinity, expressed as Kd, was 98 ± 12 µM and the Vmax was 51 ± 3%.

As to `Nc1ncnc2c1ncn2[C@@H]1O[C@H](COP(=O)(O)OP(=O)(O)OP(=O)(O)O)[C@@H](O)[C@H]1O` [ATP], in the data set on eEF2K, the “ATP binding to eEF2K” value is “binds ATP in the presence and absence of Ca^2+-calmodulin”; the “UV cross-linking of ATP to eEF2K” value is “can be UV cross-linked to ATP only in the presence of Ca^2+-calmodulin”.

In the case of Y647F (Dictyostelium discoideum; Y647F), in data set [1], the Km was determined as 65 ± 35 µM and the kcat came out at 0.00045 ± 0.000117 s⁻¹. Also, in data set [2], the Km was determined as 64 ± 2 µM and the kcat was 0.00633 ± 0.00117 s⁻¹.

Turning to Y647A (Dictyostelium discoideum; Y647A), in data set [1], the Km stood at 162 ± 38 µM and the kcat turned out to be 0.00367 ± 0.000333 s⁻¹. In addition, the kcat in data set [2] worked out at 0.00483 ± 0.00117 s⁻¹.

In the case of `CNc1ccccc1C(=O)O[C@H]1[C@@H](O)[C@H](n2cnc3c(N)ncnc32)O[C@@H]1COP(=O)(O)OP(=O)(O)OP(=O)(O)O` [mant-ATP], the Kd on A-CAT Y647F came out at 4.3 ± 1 µM; on A-CAT D663S, 2.1 ± 0.5 µM; at A-CAT D663A it was 3.2 ± 0.9 µM; on A-CAT Y647A, 10 ± 3 µM. Besides, in the data set with A-CAT D663S, the “effect of the D663S mutation on nucleotide binding” value is on record as “increased the affinity of A-CAT for nucleotide”. For the same compound, the “effect of the D663A mutation on nucleotide binding” value in the data set on A-CAT D663A is listed as “increased the affinity of A-CAT for nucleotide”. Besides, the “effect of the Y647A mutation on nucleotide binding” value in the data set on A-CAT Y647A is “weakened the binding”.

Turning to `CNc1ccccc1C(=O)O[C@H]1[C@@H](O)[C@H](n2cnc3c(N)ncnc32)O[C@@H]1COP(=O)(O)OP(=O)(O)O` [mant-ADP], binding at A-CAT Y647F was characterised by a dissociation constant (Kd) of 15 ± 2 µM. For the same compound, on A-CAT D663S, the Kd worked out at 12 ± 2 µM and the “effect of the D663S mutation on nucleotide binding” value was “increased the affinity of A-CAT for nucleotide”. In addition, at A-CAT D663A, the Kd was 8 ± 2 µM and the “effect of the D663A mutation on nucleotide binding” value is reported as “increased the affinity of A-CAT for nucleotide”. Moreover, at A-CAT Y647A, the Kd worked out at 30 ± 2 µM and the “effect of the Y647A mutation on nucleotide binding” value is listed as “weakened the binding”.
